Results taken from ChEMBL document CHEMBL1201862, “PubChem BioAssay data set” (2004).
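These data come from cells grown in 96-well plates and exposed to compound for 48 hours at five concentrations. Abbreviation: GI50, concentration required for 50% inhibition of growth.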 Activity calls are given as the source filed them. Cut-off read from the data, not from the text of the source: active = GI50 up to about 1.1 µM and inactive = higher.

Key:
Test in all cases: DTP human tumour cell line panel, 48 h
[1] = tested on: OVCAR-3
[2] = tested on: DU-145
[3] = tested on: IGROV-1
[4] = tested on: KM12
[5] = tested on: HL-60
[6] = tested on: 786-0
[7] = tested on: SK-MEL-28
[8] = tested on: A498
[9] = tested on: K562
[10] = tested on: HCT-116
[11] = tested on: OVCAR-4
[12] = tested on: OVCAR-8
[13] = tested on: M14
[14] = tested on: MCF7
[15] = tested on: MOLT-4
[16] = tested on: RPMI-8226
[17] = tested on: UO-31
[18] = tested on: SK-MEL-5
[19] = tested on: SN12C

Row | Compound | GI50 [1] | GI50 [2] | GI50 [3] | GI50 [4] | GI50 [5] | GI50 [6] | GI50 [7] | GI50 [8] | GI50 [9] | GI50 [10] | GI50 [11] | GI50 [12] | GI50 [13] | GI50 [14] | GI50 [15] | GI50 [16] | GI50 [17] | GI50 [18] | GI50 [19]
1 | O=S1(=O)C(c2ccccc2)=C(O)c2ccccc21 | > 100 µM (inactive) | > 100 µM (inactive) | > 100 µM (inactive) | > 100 µM (inactive) | > 100 µM (inactive) | > 100 µM (inactive) | > 100 µM (inactive) | > 100 µM (inactive) | > 100 µM (inactive) | > 100 µM (inactive) | > 100 µM (inactive) | > 100 µM (inactive) | > 100 µM (inactive) | > 100 µM (inactive) | > 100 µM (inactive) | > 100 µM (inactive) | > 100 µM (inactive) | > 100 µM (inactive) | –
2 | CCOC(=O)[C@@]1(C(C)=O)CC(C)=C(C)C[S@@+]1[O-] | > 100 µM (inactive) | > 100 µM (inactive) | > 100 µM (inactive) | > 100 µM (inactive) | – | > 100 µM (inactive) | > 100 µM (inactive) | > 100 µM (inactive) | > 100 µM (inactive) | > 100 µM (inactive) | > 100 µM (inactive) | > 100 µM (inactive) | > 100 µM (inactive) | > 100 µM (inactive) | > 100 µM (inactive) | > 100 µM (inactive) | > 100 µM (inactive) | – | > 100 µM (inactive)
3 | CCOC(=O)C1C(c2ccc(OC)cc2)c2c(nn(-c3ccccc3)c2O)CC1(C)O (stereo not drawn) | 80.4 µM (inactive) | 38.8 µM (inactive) | > 100 µM (inactive) | 7.1 µM (inactive) | 1.38 µM (inactive) | > 100 µM (inactive) | 37.5 µM (inactive) | > 100 µM (inactive) | – | 17.9 µM (inactive) | 96.6 µM (inactive) | 98.2 µM (inactive) | 11 µM (inactive) | 33.6 µM (inactive) | 0.596 µM (active) | 2.29 µM (inactive) | 11 µM (inactive) | 2.81 µM (inactive) | 91.2 µM (inactive)
4 | Cc1cn([C@H]2C[C@](C)(CO)N(C)O2)c(=O)[nH]c1=O | – | > 100 µM (inactive) | > 100 µM (inactive) | > 100 µM (inactive) | > 100 µM (inactive) | > 100 µM (inactive) | > 100 µM (inactive) | > 100 µM (inactive) | > 100 µM (inactive) | > 100 µM (inactive) | > 100 µM (inactive) | – | > 100 µM (inactive) | > 100 µM (inactive) | > 100 µM (inactive) | > 100 µM (inactive) | > 100 µM (inactive) | > 100 µM (inactive) | > 100 µM (inactive)
5 | O=C(NC(=S)NC(=O)c1cc(O)c(O)c(O)c1)c1cc(O)c(O)c(O)c1 | – | 25.5 µM (inactive) | – | 24.5 µM (inactive) | – | 20 µM (inactive) | 27.8 µM (inactive) | > 100 µM (inactive) | 8.34 µM (inactive) | 20.4 µM (inactive) | 20.4 µM (inactive) | 20.7 µM (inactive) | 32.1 µM (inactive) | 38.7 µM (inactive) | > 10 µM (inactive) | 48.3 µM (inactive) | 22.4 µM (inactive) | 24.5 µM (inactive) | 24.7 µM (inactive)
6 | CC(C)(C)C1=C(Br)C(C(C)(C)C)OP1(=O)O (stereo not drawn) | > 100 µM (inactive) | > 100 µM (inactive) | > 100 µM (inactive) | > 100 µM (inactive) | > 100 µM (inactive) | > 100 µM (inactive) | > 100 µM (inactive) | > 100 µM (inactive) | > 100 µM (inactive) | > 100 µM (inactive) | > 100 µM (inactive) | > 100 µM (inactive) | > 100 µM (inactive) | > 100 µM (inactive) | – | – | > 100 µM (inactive) | > 100 µM (inactive) | > 100 µM (inactive)
7 | O=C(/C=C/c1cccc(Oc2ccccc2)c1)NCc1ccc(C(=O)NCCc2ccccc2)cc1 | > 100 µM (inactive) | > 100 µM (inactive) | > 100 µM (inactive) | > 100 µM (inactive) | – | 24.1 µM (inactive) | > 100 µM (inactive) | > 100 µM (inactive) | > 100 µM (inactive) | > 100 µM (inactive) | 58.5 µM (inactive) | 24.8 µM (inactive) | > 100 µM (inactive) | > 100 µM (inactive) | > 100 µM (inactive) | > 100 µM (inactive) | > 100 µM (inactive) | > 100 µM (inactive) | > 100 µM (inactive)
8 | O=C(O)c1ccc2nc(-c3ccccn3)c(-c3ccccn3)nc2c1 | – | > 100 µM (inactive) | > 100 µM (inactive) | > 100 µM (inactive) | > 100 µM (inactive) | > 100 µM (inactive) | > 100 µM (inactive) | > 100 µM (inactive) | > 100 µM (inactive) | > 100 µM (inactive) | > 100 µM (inactive) | > 100 µM (inactive) | > 100 µM (inactive) | > 100 µM (inactive) | > 100 µM (inactive) | > 100 µM (inactive) | > 100 µM (inactive) | > 100 µM (inactive) | –
